Results: ChEMBL document CHEMBL1201862, “PubChem BioAssay data set” (2004)
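In this assay, cells in 96-well plates receive the compound at five concentrations for 48 hours. Endpoints are linearly interpolated between the surrounding concentrations. GI50 = concentration required for 50% inhibition of growth.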 The source made the active and inactive calls. No stated cut-off is given here; in the data, active = GI50 up to about 1.1 µM and inactive = higher.

Assays:
Assay in all cases: NCI tumour cell line growth inhibition, 48 h
[1] = tested on: HCT-15
[2] = tested on: SF-539
[3] = tested on: KM12
[4] = tested on: CCRF-CEM
[5] = tested on: UACC-62
[6] = tested on: MDA-MB-231
[7] = tested on: MCF7
[8] = tested on: UO-31
[9] = tested on: EKVX
[10] = tested on: SNB-75
[11] = tested on: U-251
[12] = tested on: NCI-H460
[13] = tested on: HCC 2998
[14] = tested on: M14
[15] = tested on: MDA-MB-435
[16] = tested on: SW-620
[17] = tested on: K562
[18] = tested on: Malme-3M
[19] = tested on: HT-29
[20] = tested on: A549
[21] = tested on: SF-268
[22] = tested on: OVCAR-4
[23] = tested on: A498
[24] = tested on: SK-MEL-2
[25] = tested on: NCI/ADR-RES
[26] = tested on: Hs-578T
[27] = tested on: ACHN
[28] = tested on: LOX IMVI
[29] = tested on: SNB-19
[30] = tested on: SR
[31] = tested on: SK-MEL-28
[32] = tested on: DU-145
[33] = tested on: 786-0
[34] = tested on: SK-MEL-5
[35] = tested on: IGROV-1
[36] = tested on: T47D
[37] = tested on: RPMI-8226
[38] = tested on: BT-549
[39] = tested on: SN12C
[40] = tested on: COLO 205
[41] = tested on: CAKI-1
[42] = tested on: HOP-92
[43] = tested on: NCI-H23
[44] = tested on: OVCAR-8
[45] = tested on: HCT-116
[46] = tested on: RXF 393
[47] = tested on: HL-60
[48] = tested on: UACC-257
[49] = tested on: MOLT-4
[50] = tested on: TK-10
[51] = tested on: OVCAR-5
[52] = tested on: NCI-H226
[53] = tested on: PC-3
[54] = tested on: NCI-H522
[55] = tested on: OVCAR-3
[56] = tested on: SK-OV-3
[57] = tested on: HOP-62
[58] = tested on: SF-295

Question: What does the source list for `CC(C)C/C=C/C1=NN(c2cccc(S(=O)(=O)O)c2)C2(C1)SCC(=O)N2c1nc2ccccc2s1` (stereo unspecified)?
Answer: GI50 [1]: 91.6 µM; GI50 [2]: 61.4 µM (inactive); GI50 [3]: 36.7 µM (inactive); GI50 [4]: 23.3 µM (inactive); GI50 [5]: 48.4 µM (inactive); GI50 [6]: 38.9 µM (inactive); GI50 [7]: 30.5 µM (inactive); GI50 [8]: 50.1 µM (inactive); GI50 [9]: > 100 µM (inactive); GI50 [10]: 97.5 µM (inactive); GI50 [11]: 30.1 µM (inactive); GI50 [12]: 38 µM (inactive); GI50 [13]: > 100 µM (inactive); GI50 [14]: > 100 µM (inactive); GI50 [15]: 31.1 µM (inactive); GI50 [16]: 96.6 µM (inactive); GI50 [17]: 51.4 µM (inactive); GI50 [18]: 93.1 µM (inactive); GI50 [19]: > 100 µM (inactive); GI50 [20]: 89.1 µM (inactive); GI50 [21]: 37.2 µM (inactive); GI50 [22]: 61.7 µM (inactive); GI50 [23]: 27.7 µM (inactive); GI50 [24]: 35.2 µM (inactive); GI50 [25]: 71.6 µM (inactive); GI50 [26]: 56.8 µM (inactive); GI50 [27]: 72.4 µM (inactive); GI50 [28]: 26.8 µM (inactive); GI50 [29]: 50 µM (inactive); GI50 [30]: 25.2 µM (inactive); GI50 [31]: > 100 µM (inactive); GI50 [32]: 44.2 µM (inactive); GI50 [33]: 21.3 µM (inactive); GI50 [34]: 64 µM (inactive); GI50 [35]: 36.8 µM (inactive); GI50 [36]: 5.43 µM (inactive); GI50 [37]: 21.6 µM (inactive); GI50 [38]: 83.2 µM (inactive); GI50 [39]: 31.9 µM (inactive); GI50 [40]: > 100 µM (inactive); GI50 [41]: 66.8 µM (inactive); GI50 [42]: > 100 µM (inactive); GI50 [43]: 99.5 µM (inactive); GI50 [44]: 66.2 µM (inactive); GI50 [45]: 67.8 µM (inactive); GI50 [46]: 98.4 µM (inactive); GI50 [47]: 29.9 µM (inactive); GI50 [48]: > 100 µM (inactive); GI50 [49]: 33.8 µM (inactive); GI50 [50]: 34.4 µM (inactive); GI50 [51]: > 100 µM (inactive); GI50 [52]: 29.2 µM (inactive); GI50 [53]: 40 µM (inactive); GI50 [54]: 19.8 µM (inactive)

Question: Which GI50 [55] does the source give for `Sc1cnnc2ccc(Br)cc12` here?
Answer: The GI50 was 30.3 µM (inactive).

Question: What about the GI50 [1] of the same compound?
Answer: The GI50 was 78.3 µM.

Question: What about the GI50 [2] of the same compound?
Answer: The GI50 was 33 µM (inactive).

Question: What about the GI50 [3] of the same compound?
Answer: Its GI50 is 50.4 µM (inactive).

Question: And the GI50 [4]?
Answer: The GI50 was 36.9 µM (inactive).

Question: And the GI50 [5]?
Answer: The GI50 was 32.3 µM (inactive).

Question: What about the GI50 [6] of the same compound?
Answer: Its GI50 is > 100 µM (inactive).

Question: And the GI50 [7]?
Answer: Its GI50 is 34.7 µM (inactive).

Question: What about the GI50 [8] of the same compound?
Answer: The GI50 was 34.9 µM (inactive).

Question: And the GI50 [9]?
Answer: The GI50 was 22.5 µM (inactive).

Question: And the GI50 [10]?
Answer: The GI50 was > 100 µM (inactive).

Question: And the GI50 [11]?
Answer: Its GI50 is 38.7 µM (inactive).

Question: What about the GI50 [12] of the same compound?
Answer: The GI50 was 35.6 µM (inactive).

Question: What about the GI50 [13] of the same compound?
Answer: Its GI50 is 34.6 µM (inactive).

Question: And the GI50 [14]?
Answer: The GI50 was 61 µM (inactive).

Question: And the GI50 [15]?
Answer: Its GI50 is 27.4 µM (inactive).

Question: And the GI50 [16]?
Answer: The GI50 was > 100 µM (inactive).

Question: What about the GI50 [17] of the same compound?
Answer: The GI50 was 37.8 µM (inactive).

Question: And the GI50 [18]?
Answer: The GI50 was 24.7 µM (inactive).

Question: What about the GI50 [19] of the same compound?
Answer: Its GI50 is 26.4 µM (inactive).

Question: And the GI50 [20]?
Answer: The GI50 was 36.1 µM (inactive).

Question: And the GI50 [21]?
Answer: The GI50 was 58.7 µM (inactive).

Question: What about the GI50 [22] of the same compound?
Answer: The GI50 was 35.9 µM (inactive).

Question: What about the GI50 [23] of the same compound?
Answer: The GI50 was 53.3 µM (inactive).

Question: What about the GI50 [56] of the same compound?
Answer: Its GI50 is > 100 µM (inactive).

Question: And the GI50 [24]?
Answer: The GI50 was 26.6 µM (inactive).

Question: What about the GI50 [25] of the same compound?
Answer: The GI50 was 48.6 µM (inactive).

Question: And the GI50 [26]?
Answer: Its GI50 is 57.3 µM (inactive).

Question: What about the GI50 [27] of the same compound?
Answer: The GI50 was 28.5 µM (inactive).

Question: And the GI50 [28]?
Answer: Its GI50 is 46 µM (inactive).

Question: What about the GI50 [29] of the same compound?
Answer: Its GI50 is 74.3 µM (inactive).

Question: What about the GI50 [30] of the same compound?
Answer: The GI50 was 52 µM (inactive).

Question: And the GI50 [31]?
Answer: The GI50 was 40.4 µM (inactive).

Question: And the GI50 [32]?
Answer: The GI50 was 50.7 µM (inactive).

Question: What about the GI50 [33] of the same compound?
Answer: The GI50 was > 100 µM (inactive).

Question: What about the GI50 [34] of the same compound?
Answer: The GI50 was 32.1 µM (inactive).

Question: And the GI50 [35]?
Answer: The GI50 was 48.1 µM (inactive).

Question: What about the GI50 [36] of the same compound?
Answer: Its GI50 is 51.9 µM (inactive).

Question: What about the GI50 [37] of the same compound?
Answer: The GI50 was 69 µM (inactive).

Question: What about the GI50 [38] of the same compound?
Answer: The GI50 was 37.3 µM (inactive).

Question: What about the GI50 [39] of the same compound?
Answer: Its GI50 is 69.5 µM (inactive).

Question: And the GI50 [40]?
Answer: Its GI50 is > 100 µM (inactive).

Question: What about the GI50 [57] of the same compound?
Answer: The GI50 was > 100 µM (inactive).

Question: And the GI50 [41]?
Answer: Its GI50 is 73.1 µM (inactive).

Question: And the GI50 [42]?
Answer: The GI50 was 42.7 µM (inactive).

Question: And the GI50 [43]?
Answer: Its GI50 is 28.8 µM (inactive).

Question: And the GI50 [44]?
Answer: Its GI50 is 59.2 µM (inactive).

Question: And the GI50 [45]?
Answer: The GI50 was 86.1 µM (inactive).

Question: What about the GI50 [46] of the same compound?
Answer: The GI50 was 22.7 µM (inactive).

Question: What about the GI50 [47] of the same compound?
Answer: The GI50 was 36.8 µM (inactive).

Question: And the GI50 [48]?
Answer: The GI50 was 29.4 µM (inactive).

Question: And the GI50 [49]?
Answer: The GI50 was 40.2 µM (inactive).

Question: What about the GI50 [50] of the same compound?
Answer: The GI50 was 38.6 µM (inactive).

Question: What about the GI50 [51] of the same compound?
Answer: Its GI50 is > 100 µM (inactive).

Question: And the GI50 [58]?
Answer: Its GI50 is 34 µM (inactive).

Question: And the GI50 [52]?
Answer: The GI50 was 49.3 µM (inactive).

Question: And the GI50 [54]?
Answer: Its GI50 is 28 µM (inactive).
